Ends that are not written are not given here. FAM = 5(6)-carboxyfluorescein; Ahx = NCCCCCC(=O)O
How the values were obtained:
mouse brain [1] = assay: In vivo play-off screen with 10 published CNS homing peptide-phages; conditions: phage pool i.v., 1 h; acid and detergent perfusion
Method: Play-off screen was carried out with 10 previously published BBB penetrating/CNS homing peptide-phages. […] Oligonucleotides were annealed and ligated into the phage genome using T7Select 415-1 cloning kit (Novagen) and the T7Select System Manual. Each peptide-phage was separately amplified in liquid bacterial culture, precipitated with PEG, recovered in PBS and titered. Phages were mixed in equimolar ratios and purified with CsCl-ultracentrifugation and dialysis. Titer of the play-off pool was determined and mice were intravenously injected with 1×10^10 pfu of phage pool. After one hour of circulation time, mice were perfused with acid buffer (500 mM NaCl, 0.1 M glycine, 1% BSA, pH2.5) and detergent buffer (1% NP40 in PBS), collected organs were homogenized and phage pools amplified for high-throughput sequencing.
Novel BBB penetrating and CNS homing peptide was identified in a step by step process including a phage play-off screens, alanine scanning mutagenesis and phage display with unique library. The first selection step included a phage play-off screen with ten previously published CNS homing peptides (Table 5). To ensure collecting BBB penetrating and CNS homing peptides, phage play-off pool was intravenously (iv) injected into the mice and perfusion was done with acid and detergent buffers to remove unbound phages and brake the endothelial layer of blood vessels. […]

mouse brain [2] = assay: In vivo phage display with CX4CYX library
Method: In vivo phage display with CX4CYX library was performed in three selection rounds. Phage library was injected intravenously to Balb/c mice and allowed to circulate for one hour. After circulation, the animals were anesthetized and perfused intracardially with acid and detergent buffers. Brain and control organs were collected and homogenized in 1% NP40-LB. Bound phages were rescued by amplification in E. coli and their genomic DNA was sequenced by Ion Torrent next generation DNA sequencing system.
A novel phage library CX4CYX was constructed based on the alanine-leucine screen to find new brain homing peptides). This knowledge directed us to construct a novel phage library CX4CYX (X—any amino acid), where Cys1, Cys6 and Tyr7 remained in their intact positions, and the four amino acid variable-domain laid between the cysteines, and one amino acid variability after Tyr7. Three rounds of phage bio-panning was performed to allow enrichment of peptides in the brain. Again acid and detergent buffers were used for perfusion to remove non-specifically bound phages from the brain after systemic administration of phage library (round 1) and recovered brain phage pools (round 2 and 3). HTS reads from round 1 to round 3 indicated decent enrichment of in-frame peptides in the brain (Table 6).

Neuro2A cells = assay: In vitro FAM-peptide binding and uptake; type: cell-based, mouse; conditions: 30 μM, 1 h, 4 °C (binding) or 37 °C (uptake)
Method: To assess the binding and uptake of Cerepep peptide, Neuro2A were cultured in 24-well plates on polylysine coated glass coverslips until 80-90% confluency. FAM-Cerepep (FAM-Ahx-SRRVISRAKLAAAL-OH (SEQ ID NO:9)) or control FAM-RPAR (FAM-RPARPAR-OH (SEQ ID NO:74)) peptide with the final concentration of 30 µM was added to Neuro2A cells in growth media and incubated at 4 °C (to study the binding) or 37 °C (to study the uptake) for 1 h. The cells were washed 4 times with growth media and fixed in methanol. The samples were stained with anti-fluorescein antibody to enhance the FAM signal. The fixed cells were first blocked with PBST (PBS+0.05% Tween 20), 5% BSA, 5% goat serum at RT for 30 min, followed by incubation with rabbit anti-fluorescein IgG (cat. no. A889, Thermo Fisher Scientific, MA, USA) at 4 °C for O/N and Alexa 647 goat anti-rabbit IgG secondary antibody at RT for 1h. Nuclei were counterstained with DAPI at 1 μg/ml. The coverslips were mounted on glass slides with Fluoromount-G (Electron Microscopy Sciences, PA, USA), imaged using confocal microscopy (Olympus FV1200MPE, Tokyo, Japan) and analyzed using the FV10-ASW4.2 software.
The binding (at 4 °C) and uptake (at 37 °C) of synthetic FAM-Cerepep by Neuro2A cells was also studied, comparing it to a control FAM-RPAR peptide which has a similar charge.

mouse brain [3] = assay: FAM-Cerepep brain distribution; type: in vivo; conditions: 100 μl of 2 mM i.v., 2.5 h circulation
Method: To assess the ability of FAM-conjugated to Cerepep to traverse the BBB, 100 μl of 2 mM FAM-Cerepep or FAM-scrambled Control peptide (SARVISRAKLARAL (SEQ ID NO:70)) was injected into the tail vein of mice n=3. After 2.5 h of circulation, the animals were anesthetized and perfused, the brains were collected, cryosected, fixed, permeabilized, and incubated with CD31-rat and anti-fluorescein-rabbit primary antibodies at room temperature for 2 hours. After washes, sections were incubated with Alexa Fluor […] anti-rat and Alexa Fluor 647 anti-rabbit secondary antibodies, washed and stained with DAPI. Images were taken using a confocal microscope in 4 different areas of the brain (cortex, cerebellum, hippocampus, brainstem).
To quantify FAM-Cerepep in different regions of the brain, expts were set up to assess fluorescence intensity. Briefly, 100 μl of 2 mM FAM-Cerepep or FAM-scrambled peptide (SARVISRAKLARAL (SEQ ID NO:70)) was injected into the tail vein of mice n=3. […] Images were taken under a confocal microscope in 4 different areas of the brain (cortex, cerebellum, hippocampus, brainstem), and fluorescence intensity in each brain region was measured and quantified using ImageJ, as depicted in FIGS. 22A-22E.

mature neurons = assay: FAM-Cerepep colocalization with mature neurons; type: in vivo, mouse; conditions: 100 μl of 2 mM i.v., 2.5 h
Method: (§1) To assess the ability of FAM-conjugated to Cerepep to colocalize with mature neurons, 100 μl of 2 mM FAM-Cerepep or FAM-scramble (SARVISRAKLARAL (SEQ ID NO: 70)) was injected into the tail vein of mice n=3. After 2.5 h of circulation, the animals were anesthetized and perfused, the brains were collected, cryosected, fixed, permeabilized, and incubated with NeuN-mouse and anti-fluorescein-rabbit primary antibodies for 2 hours at room temperature. After washes, sections were incubated with Alexa Fluor […] anti-mouse and Alexa Fluor 647 anti-rabbit secondary antibodies, sections were washed and stained with DAPI. Pictures were taken under a confocal microscope in 4 different areas of the brain (cortex, cerebellum, hippocampus, brainstem).

astrocytes = assay: FAM-Cerepep colocalization with astrocytes; type: in vivo, mouse; conditions: 100 μl of 2 mM i.v., 2.5 h
Method: as §1, with “astrocytes,” for “mature neurons,”, “NO:70))” for “NO: 70))”, “GFAP-rat” for “NeuN-mouse”, “anti-rat” for “anti-mouse”

microglia = assay: FAM-Cerepep colocalization with microglia; type: in vivo, mouse; conditions: 100 μl of 2 mM i.v., 2.5 h
Method: To assess the ability of FAM-conjugated to Cerepep to colocalize with microglia, 100 μl of 2 mM FAM-Cerepep or FAM-scramble (SARVISRAKLARAL (SEQ ID NO: 70)) was injected into the tail vein of mice n=3. After 2.5 h of circulation, the animals were anesthetized and perfused, the brains were collected, cryosected, fixed, permeabilized, and incubated with CD11b-rat and anti-fluorescein-rabbit primary antibodies at room temperature for 2 hours. After washes, sections were incubated with Alexa Fluor […] anti-rat and Alexa Fluor 647 anti-rabbit secondary antibodies, sections were washed and stained with DAPI. Pictures were taken under a confocal microscope in 4 different areas of the brain (cortex, cerebellum, hippocampus, brainstem).

activated microglia = assay: FAM-CVG colocalization with activated microglia in glioma; type: in vivo, mouse; conditions: FAM-labelled, i.v., 1 h; WT GBM, glioma edge and core
Method: WT GBM glioma-bearing mice were injected iv with FAM-labelled CVG peptide for 1 hour circulation. Mice were perfused and tissues of interest were snap-frozen in the vapor of liquid nitrogen. Immunofluorescent staining was carried out with the following antibodies: FAM, CD68, CD11b and CD206.

mouse brain [4] = assay: In vivo play-off of alanine-scan peptide-phages; conditions: 5×10^9 pfu phage mix i.v., 1 h, HTS
Method: To determine which amino acid positions are important for brain homing of Cerepep, in vivo play-off method was used. A pool of T7 peptide-phages was created, where each amino acid of Cerepep sequence was changed one-by-by to alanine and alanines were changed to leucines. These clones, original Cerepep peptide-phage clone and control insertless phage were mixed in equimolar ratio and 5×10^9 pfu of phage mix was injected i.v. into male Balb/C mice (n=2). Following 1 h circulation the animals were anesthetized and perfused with PBS. The prevalence of phage clones in the brain was determined by high throughput sequencing.
To determine which amino acid positions are important for brain homing of SERVISRAKLAAAL (SEQ ID NO:9), a pool of peptide-phage clones was compiled, where every amino acid position was one-by-one changed to alanine (alanines were changed to leucines). […] The phage mix was injected into mice and following a 1 h circulation the amount of different phage clones in the brain was determined using HTS. […]
Based on studies involving in vivo play-off analyses, it was determined that Arginines and isoleucine are crucial for the brain homing of Cerepep (CP) peptide. Every position of CP peptide was one-by one mutated to alanine (alanines were changed to leucines) and the brain homing of each mutated peptide-phage was assessed using in vivo play-off method (FIG. 7C). […]

CAGALCY [reference compound]
representation in the brain (HTS reads) (mouse brain [1]): highest representation in the brain | R1 reads (mouse brain [2]; round 1): 3 reads | R3 reads (mouse brain [2]; round 3): 880 reads | R3 > R1 (ratio of sequencing reads between round 3 and round 1) (mouse brain [2]; round 3 / round 1): 293

FAM-Ahx-SRRVISRAKLAAAL-OH ({FAM-Ahx}-SRRVISRAKLAAAL-OH) [FAM-Cerepep]
binding and uptake of FAM-peptide (Neuro2A cells): bound to and was taken up by Neuro2A cells | detection in brain (mouse brain [3]): could be detected in the brain tissues | association with neurons (NeuN) (mature neurons): could be detected associated with neurons in the brain tissues | association with astrocytes (GFAP) (astrocytes): could be detected associated with astrocytes in the brain tissues | association with microglia (CD11b) (microglia): could be detected associated with microglia in the brain tissues

FAM-labelled CVG peptide: 5(6)-carboxyfluorescein-labelled CVGTNCY peptide (not fully specified (N-terminus); cysteine pairing not given here; also: 5(6)-carboxyfluorescein label, position not given here)
colocalization with activated microglia markers CD68, CD11b and CD206 (activated microglia): colocalization with activated microglia markers CD68, CD11b and CD206 cells

RRVISRAKLAAAL
brain homing / brain accumulation of mutated peptide-phage (mouse brain [4]): appear to be necessary for brain homing
